Each block holds one compound with its values, some of them ahead of it.
Experiments:
Type in all cases: biochemical, Acetobacter sp. CCTCC M209061
[1] = biological target: T1, AcCR (recombinant carbonyl reductase; GAcCR) (Acetobacter sp., UniProt A0A2S1GUX7); experiment: NADH absorbance at […] nm, initial rates; conditions: pH 6.5, 35 °C (optimum conditions), GST-tagged enzyme
T1 construct: N-terminal GST fusion from pGEX-2T, tag kept, about 53 kDa on SDS-PAGE; E. coli BL21(DE3)pLysS

[2] = biological target: T1, AcCR (recombinant carbonyl reductase; GAcCR); experiment: NADH formation at […] nm, initial rates; conditions: 45 °C, optimum conditions (pH 8.0 in assay method, optimum 8.5), GST-tagged enzyme
[3] = biological target: T1, AcCR (recombinant carbonyl reductase; GAcCR); experiment: NADPH formation at […] nm, initial rates; conditions: oxidation of isopropanol; 45 °C; optimum conditions (pH 8.0 in assay method); GST-tagged enzyme

T1 sequence (A0A2S1GUX7 1-253): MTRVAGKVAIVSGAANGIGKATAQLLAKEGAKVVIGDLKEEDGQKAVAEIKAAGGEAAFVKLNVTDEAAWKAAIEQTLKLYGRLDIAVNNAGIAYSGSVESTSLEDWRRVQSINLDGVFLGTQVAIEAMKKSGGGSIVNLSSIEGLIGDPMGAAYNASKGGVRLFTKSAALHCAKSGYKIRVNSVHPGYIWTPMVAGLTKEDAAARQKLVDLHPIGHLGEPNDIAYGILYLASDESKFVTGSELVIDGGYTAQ

Compound: CC(=O)c1ccc(Cl)cc1 [4′-Chloroacetophenone]
- Km ([1]; co-substrate NADH): 260 µM

- Km ([2]; co-substrate NAD+): 23800 µM
Compound: CC(C)O [Isopropanol]

- Km ([1]; reduction of 4'-chloroacetophenone): 160 µM
Compound: NC(=O)C1=CN([C@@H]2O[C@H](COP(=O)(O)OP(=O)(O)OC[C@H]3O[C@@H](n4cnc5c(N)ncnc54)[C@H](O)[C@@H]3O)[C@@H](O)[C@H]2O)C=CC1 [NADH]

- Km [3]: 1390 µM
Compound: NC(=O)c1ccc[n+]([C@@H]2O[C@H](COP(=O)(O)OP(=O)(O)OC[C@H]3O[C@@H](n4cnc5c(N)ncnc54)[C@H](OP(=O)(O)O)[C@@H]3O)[C@@H](O)[C@H]2O)c1 [NADP^+]

- Km ([2]; oxidation of isopropanol): 380 µM
Compound: NC(=O)c1ccc[n+]([C@@H]2O[C@H](COP(=O)(O)OP(=O)(O)OC[C@H]3O[C@@H](n4cnc5c(N)ncnc54)[C@H](O)[C@@H]3O)[C@@H](O)[C@H]2O)c1 [NAD^+]

Reference: article PMC5573764, “Enzymatic characterization of a recombinant carbonyl reductase from Acetobacter sp. CCTCC M209061” (Bioresources and Bioprocessing, 2017)
